How the values were obtained:
[1] = Pharmacokinetic study of seven phenolic acids in rat plasma after oral administration of E. purpurea extract (UHPLC-ESI-MS/MS); assay type: in vivo; conditions: male SD rats, oral E. purpurea extract 10 g/kg, n = 12, mean ± SD; for AUC(0-inf) / AUC(0-t) / Cmax / Tmax / half-life: Sprague-Dawley, rat
Protocol: Twelve male Sprague-Dawley (SD) rats (body weight 220 ± 20 g) were provided by Heilongjiang University of Chinese Medicine (Harbin, China). Each rat fasted 12 h before administration, with free drinking during the experiment. Blood samples were obtained from rats after oral administration of the extract of E. purpurea with a dose of 10 g/kg body weight. Blood samples (0.25 mL) of the retinal venous plexus were taken at 0.083, 0.25, 0.75, 1.0, 1.5, 2, 3, 4, 6, 8, 12, 24 and 36 h, then moved immediately into a 0.5 mL centrifuge tube that was spread with heparin at each time point. Meanwhile, the animal blood was centrifuged at 13,000 rpm for 5 min at 4 °C. The plasma was frozen in a −20 °C refrigerator in case of deterioration.
First, the frozen plasma was thawed at room temperature and then a liquid–liquid extraction (LLE) method was utilized. Then, a 100 μL aliquot of each plasma sample was removed except for the calibration standards which was mixed with 10 μL IS into a 10 mL glass tube. We continued by adding 100 μL methanol and 100 μL 30% formic acid, vortex-mixing for 1 min, then extracted 3 mL ethyl acetate, vortex-mixing for 3 min, centrifuged for 5 min (3500 rpm), and transferred the upper organic layer into a new tube. The layer of ethyl acetate was dried with a stream of nitrogen, the dry residue was dissolved with a 100 μL mobile phase, vortexed for 2 min and samples were filtered by a 0.22 μm microporous membrane. A 10 μL aliquot was injected into the UHPLC-ESI-MS/MS system.
The rat plasma concentration-time curves of seven compounds were plotted. After oral administration of E. purpurea extract in twelve rats, the maximum drug concentration in rat plasma (Cmax) and the time to reach maximum drug concentration (Tmax) were directly obtained from concentration-time data. The elimination rate constant (Ke) was calculated by linear regression of the terminal points in a semi-log plot of the plasma concentration against time. The elimination half-life (T1/2) was calculated by the formula T1/2 = 0.693/Ke. Other pharmacokinetic parameters including the area under the concentration-time curve (AUC0→t), and the area under the plasma concentration-time curve to time infinity (AUC0→∞) were calculated using non-compartmental pharmacokinetics analysis.

[2] = Stability of the analytes in rat plasma QC samples under different storage conditions; assay type: physicochemical; conditions: n = 6; for Stability (RE%) Short-Term: 4 h at room temperature; for Stability (RE%) Freeze-Thaw: three freeze-thaw cycles (−20 °C / ambient); for Stability (RE%) Long-Term: −20 °C for 2 weeks
[3] = as above; assay type: physicochemical; conditions: post-preparation samples, 12 h at 4 °C, n = 6
Protocol: The post-preparation samples were analyzed after storage for 12 h at 4 °C. The peak area ratio response of stability samples was determined and versus those freshly prepared. For all stability results, the analyzing samples were considered stable when the percentage of relative error (RE) was within ±15% compared with freshly prepared QC samples.

Structure (SMILES) | AUC(0-inf) [1] [ng·h/mL] | AUC(0-t) [1] [ng·h/mL] | Cmax [1] [ng/mL] | Tmax [1] [h] | half-life [1] [h] | Stability (RE%) Short-Term ([2]; high QC) [%] | Stability (RE%) Freeze-Thaw ([2]; high QC) [%] | Stability (RE%) Long-Term ([2]; high QC) [%] | Stability (RE%) Short-Term ([2]; low QC) [%] | Stability (RE%) Freeze-Thaw ([2]; low QC) [%] | Stability (RE%) Long-Term ([2]; low QC) [%] | Stability (RE%) Short-Term ([2]; medium QC) [%] | Stability (RE%) Freeze-Thaw ([2]; medium QC) [%] | Stability (RE%) Long-Term ([2]; medium QC) [%] | Stability (RE%) Post-Preparative ([3]; high QC) [%] | Stability (RE%) Post-Preparative ([3]; low QC) [%] | Stability (RE%) Post-Preparative ([3]; medium QC) [%] | T1/2 [1] [h]
O=C(O)c1ccc(O)c(O)c1 [3,4-Dihydroxy benzoic acid, 3,4-dihydroxybenzoic acid] | 2050 ± 116 | 1930 ± 123 | 127 ± 18.1 | 0.77 ± 0.07 | 7.45 ± 0.87 | 4.80 | −0.52 | 3.65 | 2.03 | −0.11 | −2.93 | 10.18 | 6.57 | 2.30 | −4.01 | 9.29 | −5.47 | 
O=C(O)/C=C/c1ccc(O)c(O)c1 [Caffeic acid, caffeic acid] | 9330 ± 442 | 9220 ± 453 | 855 ± 35.9 | 8 | 5.31 ± 0.5 | 6.12 | 6.15 | −1.54 | 7.45 | 7.79 | 6.01 | −0.16 | 2.18 | 1.00 | 9.83 | 10.35 | 3.89 | 
O=C(O)c1ccc(O)cc1 [4-Hydroxy benzoic acid, 4-hydroxybenzoic acid] | 1950 ± 176 | 1640 ± 122 | 145 ± 11.6 | 1.96 ± 0.14 | 14.9 ± 5.37 | −2.50 | −1.01 | 2.81 | 10.62 | 10.03 | −3.31 | −0.46 | 2.63 | 0.21 | 7.71 | −6.42 | 10.47 | 
O=C(O)/C=C/c1ccc(O)cc1 [p-Coumaric acid, p-coumaric acid] | 3440 ± 218 | 3130 ± 156 | 293 ± 16.4 | 0.75 | 9.32 ± 1.29 | −4.81 | −8.78 | −5.30 | −3.59 | −7.57 | −6.75 | 1.57 | −0.82 | −5.40 | 7.12 | 8.52 | 11.50 | 
COc1cc(/C=C/C(=O)O)ccc1O [Ferulic acid, ferulic acid] | 6020 ± 498 | 5620 ± 453 | 359 ± 43.8 | 8 | 8.48 ± 0.71 | −8.77 | −13.12 | −1.89 | −4.21 | −7.10 | 7.93 | 4.61 | −3.80 | 6.80 | −4.91 | −0.89 | 4.84 | 
COc1cc(C(=O)O)ccc1O [Vanillic acid, vanillic acid] | 3440 ± 234 | 3140 ± 264 | 228 ± 11.9 | 0.75 |  | 1.59 | 5.28 | −0.32 | 2.24 | −6.56 | 2.91 | −0.67 | 5.74 | −0.37 | −8.03 | 9.11 | −6.34 | 8.89 ± 1.12
COc1cc(C(=O)O)cc(OC)c1O [Syringic acid, syringic acid] | 1950 ± 164 | 1650 ± 133 | 122 ± 16.4 | 1.54 ± 0.14 | 13.2 ± 1.66 | −5.73 | −2.61 | −1.30 | −1.95 | −3.75 | −0.66 | −1.50 | 4.48 | −0.79 | −6.08 | −10.74 | −7.64 | 

— PMC6151385, “Simultaneous Determination of Seven Phenolic Acids in Rat Plasma Using UHPLC-ESI-MS/MS after Oral Administration of Echinacea purpurea Extract” (Molecules : A Journal of Synthetic Chemistry and Natural …, 2017)
